# Assay results: patent publication US20220079889A1, “USE OF CANNABANOIDS IN THE TREATMENT OF PROLIFERATIVE DIABETIC RETINOPATHY” (VERDANT PHARMACEUTICALS, LLC, priority 2020, published 2022)
# What was measured:
# [1] = tested on: IL-1β-induced corneal angiogenesis; assay: IL-1β-induced corneal angiogenesis; type: in vivo, BALB/c mice; settings: 0.3 mg/kg daily i.p.; compared with untreated controls
# Procedure: BALB/c mice were anesthetized by intraperitoneal (i.p.) injection of pentobarbital sodium (60 mg/kg). Hydron pellets (0.3 μl) containing 30 ng mouse IL-1β (401-ML, R&D Systems) were prepared and implanted into the corneas. Pellets were positioned 1 mm from the corneal limbus. Implanted eyes were treated with Bacitracin ophthalmic ointment (E. Fougera & Co.) to prevent infection. To block CB, mice received daily i.p. injections of a specific CBD. Compound II (R-tech Ueno Ltd., Tokyo, Japan) as described above. A daily dose of 0.3 mg/kg was administered at day 0 and continued until the sixth day after implantation. Two, four and six days after implantation, digital images of the corneal vessels were obtained and recorded using OpenLab software version 2.2.5 (Improvision Inc.) with standardized illumination and contrast and were saved onto disks. The quantitative analysis of new vessel growth in the mouse corneas was performed using Scion Image software (version 4.0.2, Scion Corp.).
# [2] = tested on: ICAM-1; assay: ELISA of RPE-choroid complex after laser injury: ICAM-1; type: in vivo, rat; settings: laser-treated animals, 3 days after laser injury; 0.3 mg/kg BW daily i.p.
# Procedure: (§1) To block CB, a specific CBD, Compound 11 described above, was used (R-tech Ueno, Ltd., Tokyo, Japan). After laser injury, the inhibitor (0.3 mg/kg BW) was administered to the animals by daily i.p. injections. As a control, some animals received the same regimen for the vehicle solution alone.
# (§2) The RPE-choroid complex was carefully isolated from eyes 3 days after photocoagulation and placed in 300 μl of lysis buffer supplemented with protease inhibitors and sonicated. The lysate was centrifuged at 15,000 rpm for 15 minutes at 4° C. and the levels of TNF-α, monocyte chemotactic protein (MCP)-1, and intercellular adhesion molecule (ICAM)-1 were determined with rat TNF-α (BI) bioscience), MCP-1 (BD bioscience) and ICAM-1 (R&D Systems, Minneapolis, Minn.) enzyme-linked immunosorbent assay (ELISA) kits according to the manufacturers' protocols. Total protein concentration was determined using a Bio-Rad Protein Assay Kit (Bio-Rad Laboratories Hercules, Calif.) and dilutions of bovine serum albumin (Bio-Rad Laboratories) as standards.
# [3] = tested on: TNF-α; assay: ELISA of RPE-choroid complex after laser injury: TNF-α; type: in vivo, rat; settings: laser-treated animals, 3 days after laser injury; 0.3 mg/kg BW daily i.p.
# Procedure: as §1, §2
# [4] = tested on: ED-1-positive cells in the CNV lesions; assay: Quantification of macrophage infiltration into CNV lesions; type: in vivo, Brown-Norway rats
# Procedure: as §1
# At 1, 3, and 7 days after laser injury and treatment with either CBD or vehicle solution, animals were perfused with 200 ml of PBS/kg BW under deep anesthesia. Subsequently, eyes were enucleated and fixed overnight with 4% PFA, and 10 μm frozen sections of the posterior segment, including the center portion of CNV lesions (6 lesions per eye), were prepared and pre-blocked (PBS containing 10% goat serum, 0.5% gelatin, 3% BSA, and 0.2% Tween 20). […] The photographs of CNV lesions were taken, and the numbers of ED-1-positive cells were counted. To obtain a quantitative index of macrophage numbers in CNV lesions, an optical density plot of the selected area was generated by a histogram graphing tool in the Photoshop imageanalysis software (version 6.0: Adobe Systems, Mountain View, Calif.), as described in the literature (for example, Sakurai et al. (2003) IOVS 44: 3578-85). […]
structure (smiles),measurement,setting,value
CC(=O)Nc1nc(CCc2ccc(NC(=N)NN)cc2)c(Cc2ccc(S(C)(=O)=O)cc2)s1 [Compound II],effect on corneal angiogenesis (in words),[1],effectively suppresses corneal angiogenesis
same,protein level of ICAM-1 in the RPE-choroid complex,[2],57 ± 2 ng/mg
same,protein level of TNF-α in the RPE-choroid complex,[3],360 ± 12 pg/mg
same,reduction of number of accumulated macrophages,"[4]; 3 days after laser injury, 0.3 mg/kg BW daily i.p., n=4, p<0.05",41%
same,effect on accumulation of macrophages in the CNV lesions (in words),"[4]; laser injury model, rats",significantly decreased
